In patent US7138361B2, “Herbicidal heterocycles” (E. I. du Pont de Nemours and Company, priority 2000, dated 2006):

Assays:
Type in all cases: in vivo
[1] = test system: Surinam grass (Brachiaria decumbens); test: Test B preemergence; conditions: scale 0 to 100, 0 no effect, 100 complete control
In short: (§1)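 Ratings on a 0 to 100 visual scale (100 complete control) compare treated plants with controls 13 to 15 days after application. Treatments were pre- or postemergence sprays of compound in non-phytotoxic solvent with surfactant.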

[2] = test system: barnyardgrass (Echinochloa crus-galli); test: Test B preemergence; conditions: scale 0 to 100, 0 no effect, 100 complete control
In short: as §1

[3] = test system: cocklebur (Xanthium strumarium); test: Test B preemergence; conditions: scale 0 to 100, 0 no effect, 100 complete control
In short: as §1

corn (Zea mays) = test: Test B preemergence; conditions: scale 0 to 100, 0 no effect, 100 complete control
In short: as §1

[4] = test system: crabgrass (Digitaria sanguinalis); test: Test B preemergence; conditions: scale 0 to 100, 0 no effect, 100 complete control
In short: as §1

[5] = test system: giant foxtail (Setaria faberii); test: Test B preemergence; conditions: scale 0 to 100, 0 no effect, 100 complete control
In short: as §1

[6] = test system: lambsquarters (Chenopodium album); test: Test B preemergence; conditions: scale 0 to 100, 0 no effect, 100 complete control
In short: as §1

[7] = test system: morning glory (Ipomoea hederacea); test: Test B preemergence; conditions: scale 0 to 100, 0 no effect, 100 complete control
In short: as §1

[8] = test system: pigweed (Amaranthus retroflexus); test: Test B preemergence; conditions: scale 0 to 100, 0 no effect, 100 complete control
In short: as §1

rice (Oryza saliva) = test: Test B preemergence; conditions: scale 0 to 100, 0 no effect, 100 complete control
In short: as §1

[9] = test system: velvetleaf (Abutilon theophrasti); test: Test B preemergence; conditions: scale 0 to 100, 0 no effect, 100 complete control
In short: as §1

[10] = test system: Surinam grass (Brachiaria decumbens); test: Test C preemergence
Description: (§2) Seeds of plant species selected from bermudagrass (Cynodon dactylon), Surinam grass (Brachiaria decumbens), cocklebur (Xanthium strumarium), corn (Zea mays), crabgrass (Digitaria sanguinalis), woolly cupgrass (Eriochloa villosa), giant foxtail (Setaria faberii), goosegrass (Eleusine indica), johnsongrass (Sorghum halepense), kochia (Kochia scoparia), lambsquarters (Chenopodium album), morningglory (Ipomoea hederacea), yellow nutsedge (Cyperus esculentus), pigweed (Amaranthus retroflexus), common ragweed (Ambrosia elatior), soybean (Glycine max) and velvetleaf (Abutilon theophrasti) were planted and treated preemergence with test chemicals formulated in a non-phytotoxic solvent mixture which included a surfactant.
(§3) At the same time, plants selected from these crop and weed species and also winter barley (Hordeum vulgare), blackgrass (Alopecurus myosuroides), canary grass (Phalaris minor), chickweed (Stellaria media), downy brome (Bromus tectorum), green foxtail (Setaria viridis), Italian ryegrass (Lolium multiflorum), wheat (Triticum aestivum), wild oat (Avena fatua) and windgrass (Apera spica-venti) were treated with postemergence applications of some of the test chemicals formulated in the same manner. Plants ranged in height from 2 to 18 cm (1- to 4-leaf stage) for postemergence treatments. Plant species in the flooded paddy test consisted of rice (Oryza saliva), smallflower flatsedge (Cyperus difformis), duck salad (Heteranthera limosa) and barnyardgrass (Echinochloa crus-galli) grown to the 2-leaf stage for testing. Treated plants and controls were maintained in a greenhouse for 12 to 14 days, after which time all species were compared to controls and visually evaluated. Plant response ratings, summarized in Table C, are based on a scale of 0 to 100 where 0 is no effect and 100 is complete control. A dash (-) response means no test result.

[11] = test system: crabgrass (Digitaria sanguinalis); test: Test C preemergence
Description: as §2, §3

[12] = test system: giant foxtail (Setaria faberii); test: Test C preemergence
Description: as §2, §3

Sunflower = test: Test C preemergence; conditions: Rate 62 g/ha; scale 0 to 100, 0 no effect, 100 complete control
Description: as §2, §3

[13] = test system: bermudagrass (Cynodon dactylon); test: Test C preemergence
Description: as §2, §3

[14] = test system: cocklebur (Xanthium strumarium); test: Test C preemergence
Description: as §2, §3

[15] = test system: goosegrass (Eleusine indica); test: Test C preemergence
Description: as §2, §3

[16] = test system: morningglory (Ipomoea hederacea); test: Test C preemergence
Description: as §2, §3

[17] = test system: velvetleaf (Abutilon theophrasti); test: Test C preemergence
Description: as §2, §3

[18] = Rate 62 g/ha, scale 0 to 100, 0 no effect, 100 complete control
[19] = preemergence, Rate 31 g/ha, scale 0 to 100
[20] = preemergence, Rate 125 g/ha, scale 0 to 100, 0 no effect, 100 complete control

COc1cc(N2CCC(n3ccc(C(C)(C)C)n3)C2=O)ccc1C (stereo not shown) [Compound 42]
Plant response rating, Surinam grass ([1]; Preemergence, Rate 500 g/ha): 100
Plant response rating, Surinam grass ([1]; preemergence, Rate 125 g/ha): 90
Plant response rating, Barnyardgrass ([2]; Preemergence, Rate 500 g/ha): 100
Plant response rating, Barnyardgrass ([2]; preemergence, Rate 125 g/ha): 100
Plant response rating, Cocklebur ([3]; Preemergence, Rate 500 g/ha): 70
Plant response rating, Cocklebur ([3]; preemergence, Rate 125 g/ha): 0
Plant response rating, Corn (corn (Zea mays); Preemergence, Rate 500 g/ha): 20
Plant response rating, Corn (corn (Zea mays); preemergence, Rate 125 g/ha): 20
Plant response rating, Crabgrass ([4]; Preemergence, Rate 500 g/ha): 100
Plant response rating, Crabgrass ([4]; preemergence, Rate 125 g/ha): 100
Plant response rating, Foxtail, Giant ([5]; Preemergence, Rate 500 g/ha): 100
Plant response rating, Foxtail, Giant ([5]; preemergence, Rate 125 g/ha): 100
Plant response rating, Lambsquarters ([6]; Preemergence, Rate 500 g/ha): 100
Plant response rating, Lambsquarters ([6]; preemergence, Rate 125 g/ha): 100
Plant response rating, Morningglory ([7]; Preemergence, Rate 500 g/ha): 100
Plant response rating, Pigweed ([8]; Preemergence, Rate 500 g/ha): 100
Plant response rating, Rice (rice (Oryza saliva); Preemergence, Rate 500 g/ha): 100
Plant response rating, Velvetleaf ([9]; Preemergence, Rate 500 g/ha): 90
Plant response rating, Surinam grass [10, 18]: 70
Plant response rating, Surinam grass [10, 19]: 0
Plant response rating, Surinam grass [10, 20]: 90
Plant response rating, Crabgrass [11, 18]: 90
Plant response rating, Crabgrass [11, 19]: 40
Plant response rating, Crabgrass [11, 20]: 100
Plant response rating, Foxtail, Giant [12, 18]: 50
Plant response rating, Foxtail, Giant [12, 19]: 30
Plant response rating, Foxtail, Giant [12, 20]: 100

CCC(CC)c1ccn(C2SCN(c3cccc(C(F)(F)F)c3)C2=O)n1 (stereo not shown) [Compound 21]
Plant response rating, Surinam grass ([1]; Preemergence, Rate 500 g/ha): 20
Plant response rating, Surinam grass ([1]; preemergence, Rate 125 g/ha): 20
Plant response rating, Barnyardgrass ([2]; Preemergence, Rate 500 g/ha): 100
Plant response rating, Barnyardgrass ([2]; preemergence, Rate 125 g/ha): 60
Plant response rating, Cocklebur ([3]; Preemergence, Rate 500 g/ha): 0
Plant response rating, Corn (corn (Zea mays); Preemergence, Rate 500 g/ha): 0
Plant response rating, Corn (corn (Zea mays); preemergence, Rate 125 g/ha): 0
Plant response rating, Crabgrass ([4]; Preemergence, Rate 500 g/ha): 100
Plant response rating, Crabgrass ([4]; preemergence, Rate 125 g/ha): 100
Plant response rating, Foxtail, Giant ([5]; Preemergence, Rate 500 g/ha): 100
Plant response rating, Foxtail, Giant ([5]; preemergence, Rate 125 g/ha): 70
Plant response rating, Morningglory ([7]; Preemergence, Rate 500 g/ha): 100
Plant response rating, Morningglory ([7]; preemergence, Rate 125 g/ha): 90
Plant response rating, Pigweed ([8]; Preemergence, Rate 500 g/ha): 90
Plant response rating, Pigweed ([8]; preemergence, Rate 125 g/ha): 0
Plant response rating, Rice (rice (Oryza saliva); Preemergence, Rate 500 g/ha): 0
Plant response rating, Rice (rice (Oryza saliva); preemergence, Rate 125 g/ha): 0
Plant response rating, Velvetleaf ([9]; Preemergence, Rate 500 g/ha): 0
Plant response rating, Velvetleaf ([9]; preemergence, Rate 125 g/ha): 0
Plant response rating, Sunflower (Sunflower): 60
Plant response rating, Surinam grass [10, 18]: 0
Plant response rating, Surinam grass [10, 19]: 0
Plant response rating, Surinam grass [10, 20]: 30
Plant response rating, Bermudagrass [13, 18]: 100
Plant response rating, Bermudagrass [13, 19]: 60
Plant response rating, Bermudagrass [13, 20]: 100
Plant response rating, Cocklebur [14, 18]: 0
Plant response rating, Cocklebur [14, 19]: 0
Plant response rating, Cocklebur [14, 20]: 0
Plant response rating, Crabgrass [11, 18]: 90
Plant response rating, Crabgrass [11, 19]: 90
Plant response rating, Crabgrass [11, 20]: 100
Plant response rating, Foxtail, Giant [12, 18]: 80
Plant response rating, Foxtail, Giant [12, 19]: 0
Plant response rating, Foxtail, Giant [12, 20]: 90
Plant response rating, Goosegrass [15, 18]: 80
Plant response rating, Goosegrass [15, 19]: 80
Plant response rating, Goosegrass [15, 20]: 100
Plant response rating, Morningglory [16, 18]: 20
Plant response rating, Morningglory [16, 19]: 0
Plant response rating, Morningglory [16, 20]: 20
Plant response rating, Velvetleaf [17, 18]: 0
Plant response rating, Velvetleaf [17, 19]: 0
Plant response rating, Velvetleaf [17, 20]: 0

O=C1C(n2ccc(C3CC3)n2)SCN1c1cccc(C(F)(F)F)c1 (stereo not shown) [Compound 26]
Plant response rating, Surinam grass ([1]; Preemergence, Rate 500 g/ha): 70
Plant response rating, Surinam grass ([1]; preemergence, Rate 125 g/ha): 40
Plant response rating, Barnyardgrass ([2]; Preemergence, Rate 500 g/ha): 100
Plant response rating, Barnyardgrass ([2]; preemergence, Rate 125 g/ha): 100
Plant response rating, Cocklebur ([3]; Preemergence, Rate 500 g/ha): 0
Plant response rating, Cocklebur ([3]; preemergence, Rate 125 g/ha): 0
Plant response rating, Corn (corn (Zea mays); Preemergence, Rate 500 g/ha): 70
Plant response rating, Corn (corn (Zea mays); preemergence, Rate 125 g/ha): 10
Plant response rating, Crabgrass ([4]; Preemergence, Rate 500 g/ha): 100
Plant response rating, Crabgrass ([4]; preemergence, Rate 125 g/ha): 100
Plant response rating, Foxtail, Giant ([5]; Preemergence, Rate 500 g/ha): 100
Plant response rating, Foxtail, Giant ([5]; preemergence, Rate 125 g/ha): 100
Plant response rating, Lambsquarters ([6]; Preemergence, Rate 500 g/ha): 100
Plant response rating, Lambsquarters ([6]; preemergence, Rate 125 g/ha): 100
Plant response rating, Morningglory ([7]; Preemergence, Rate 500 g/ha): 0
Plant response rating, Morningglory ([7]; preemergence, Rate 125 g/ha): 0
Plant response rating, Pigweed ([8]; Preemergence, Rate 500 g/ha): 100
Plant response rating, Pigweed ([8]; preemergence, Rate 125 g/ha): 100
Plant response rating, Rice (rice (Oryza saliva); Preemergence, Rate 500 g/ha): 80
Plant response rating, Rice (rice (Oryza saliva); preemergence, Rate 125 g/ha): 40
Plant response rating, Velvetleaf ([9]; Preemergence, Rate 500 g/ha): 0
Plant response rating, Velvetleaf ([9]; preemergence, Rate 125 g/ha): 0

CC(C)(C)c1nn(C2CCN(c3cccc(C(F)(F)F)c3)C2=O)cc1Cl (stereo not shown) [Compound 14]
Plant response rating, Surinam grass ([1]; Preemergence, Rate 500 g/ha): 0
Plant response rating, Surinam grass ([1]; preemergence, Rate 125 g/ha): 0
Plant response rating, Barnyardgrass ([2]; Preemergence, Rate 500 g/ha): 0
Plant response rating, Barnyardgrass ([2]; preemergence, Rate 125 g/ha): 0
Plant response rating, Cocklebur ([3]; Preemergence, Rate 500 g/ha): 0
Plant response rating, Cocklebur ([3]; preemergence, Rate 125 g/ha): 0
Plant response rating, Corn (corn (Zea mays); Preemergence, Rate 500 g/ha): 0
Plant response rating, Corn (corn (Zea mays); preemergence, Rate 125 g/ha): 0
Plant response rating, Crabgrass ([4]; Preemergence, Rate 500 g/ha): 0
Plant response rating, Crabgrass ([4]; preemergence, Rate 125 g/ha): 0
Plant response rating, Foxtail, Giant ([5]; Preemergence, Rate 500 g/ha): 0
Plant response rating, Foxtail, Giant ([5]; preemergence, Rate 125 g/ha): 0
Plant response rating, Lambsquarters ([6]; Preemergence, Rate 500 g/ha): 0
Plant response rating, Lambsquarters ([6]; preemergence, Rate 125 g/ha): 0
Plant response rating, Morningglory ([7]; Preemergence, Rate 500 g/ha): 0
Plant response rating, Morningglory ([7]; preemergence, Rate 125 g/ha): 0
Plant response rating, Pigweed ([8]; Preemergence, Rate 500 g/ha): 0
Plant response rating, Pigweed ([8]; preemergence, Rate 125 g/ha): 0
Plant response rating, Rice (rice (Oryza saliva); Preemergence, Rate 500 g/ha): 0
Plant response rating, Rice (rice (Oryza saliva); preemergence, Rate 125 g/ha): 0
Plant response rating, Velvetleaf ([9]; Preemergence, Rate 500 g/ha): 0
Plant response rating, Velvetleaf ([9]; preemergence, Rate 125 g/ha): 0
